Results reported in US20260199484A1, “PROTAC DEGRADERS OF MLLT1 AND/OR MLLT3” (DARK BLUE THERAPEUTICS LTD, priority 2024, published 2026).

Key:
MV4-11 cells = assay: MV4-11 cellular proliferative assay, Assay Format A (CellTiter-Glo, 120 h); assay type: cell-based; conditions: Homo sapiens, Assay format A, 120 h, read-out: IC50 (MV4-11 cellular proliferative assay)
Description: An MV4-11 proliferation assay was used to test the ability of compounds to reduce cell viability. MV4-11 cells (ATCC #CRL9591) were grown in IMDM medium (11510596, Gibco) supplemented with 10% fetal bovine serum (F7524, Gibco) and 1% Penicillin/Streptomycin (15140-122, Gibco) at 37° C. with 5% CO2. Cells were seeded in 384-well Elplasia plates (4447, Corning) at a density of 50 cells/well and treated with vehicle (DMSO) or compounds (10 serial semi-log dilutions, 30 μM as top concentration).
After 120 hours of treatment, cells were incubated for 10 min at RT with the CellTiter-Glo (CTG) reagent (G7571, Promega). Measurement of the luminescence signal was performed on a microplate reader (Ensight, PerkinElmer). CTG reagent measures the amount of ATP, which is directly proportional to the number of cells, to determine the number of viable cells in culture.
The data were analysed as follows:
[formula] • where x is the measured raw signal value of a well, (cr) is the median of the measured signal values for the Central Reference (DMSO) wells on a plate, (sr) is the median of the measured signal values for the Scale Reference (reference compound) wells on a plate.
[formula] • where the experimental set-up assumes the Hill parameters in certain ranges: S0~Central Reference (CR) from normalization (=Bottom), Sinf~Scale Reference (SR) from normalization (=Top), nHill ~1, AC50~within the measured concentration range.

MLLT1 = target: T1, MLLT1 (Homo sapiens, UniProt Q03111); assay: MLLT1 degradation assay in MV4-11 cells (JESS, 24 h); assay type: cell-based; design: endogenous in cells; host or cells: MV4-11 (ATCC CRL-9591); conditions: vs DMSO control
T1 sequence (Q03111 1-559): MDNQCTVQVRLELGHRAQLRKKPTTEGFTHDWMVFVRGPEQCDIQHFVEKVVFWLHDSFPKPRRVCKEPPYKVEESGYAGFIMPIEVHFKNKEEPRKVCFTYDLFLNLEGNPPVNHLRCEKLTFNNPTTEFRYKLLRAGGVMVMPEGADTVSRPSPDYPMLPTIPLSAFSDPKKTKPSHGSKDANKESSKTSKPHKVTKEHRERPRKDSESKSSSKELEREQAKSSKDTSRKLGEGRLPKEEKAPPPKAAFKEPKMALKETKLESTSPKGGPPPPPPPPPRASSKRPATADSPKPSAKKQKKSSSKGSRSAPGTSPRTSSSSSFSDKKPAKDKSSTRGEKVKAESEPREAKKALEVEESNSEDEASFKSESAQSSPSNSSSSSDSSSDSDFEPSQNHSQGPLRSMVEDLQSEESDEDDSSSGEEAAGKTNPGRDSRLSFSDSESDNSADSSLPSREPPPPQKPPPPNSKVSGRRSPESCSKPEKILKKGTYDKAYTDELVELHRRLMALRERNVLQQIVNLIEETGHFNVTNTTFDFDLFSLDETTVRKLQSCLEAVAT
How it was run: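 MV4-11 cells treated at 1000, 100 and 10 nM (0.1% DMSO) for 24 h at 37° C; lysates (4 ug protein) run on JESS capillary immunoassay with MLLT1 and GAPDH antibodies. Peak areas give % degradation versus DMSO, binned A (≥75%) to D (<25%).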

| IC50 (MV4-11 cells) | MLLT1% Degradation @ 0.01 μM (MLLT1) | MLLT1% Degradation @ 0.1 μM (MLLT1) | MLLT1% Degradation @ 1 μM (MLLT1) | Compound |
| --- | --- | --- | --- | --- |
| < 100 nM | A (Category A: A≥75% degradation) | A (Category A: A≥75% degradation) | A (Category A: A≥75% degradation) | Cc1nn(CCCCCCCCNc2cccc3c2CN(C2CCC(=O)NC2=O)C3=O)c2cc(C(=O)Nc3cc4[nH]c([C@H]5CCCN5C)cc4cn3)ccc12 (stereo partly drawn) [Example 16, 1-(8-{[2-(2,6-dioxopiperidin-3-yl)-1-oxo-3H-isoindol-4-yl]amino}octyl)-3-methyl-N-{2-[(2R)-1-methylpyrrolidin-2-yl]-1H-pyrrolo[3,2-c]pyridin-6-yl}indazole-6-carboxamide] |
| < 100 nM | B (Category B: 50%≤B<75% degradation) | A (Category A: A≥75% degradation) | A (Category A: A≥75% degradation) | Cc1nn(CCCCCCCCNc2cccc3c2C(=O)N(C2CCC(=O)NC2=O)C3=O)c2cc(C(=O)Nc3cc4[nH]c(C5CCCN5C)cc4cn3)ccc12 (racemic) [Example 2, rac-1-(8-{[2-(2,6-dioxopiperidin-3-yl)-1,3-dioxoisoindol-4-yl]amino}octyl)-3-methyl-N-[2-(1-methylpyrrolidin-2-yl)-1H-pyrrolo[3,2-c]pyridin-6-yl]indazole-6-carboxamide] |
| < 100 nM | B (Category B: 50%≤B<75% degradation) | A (Category A: A≥75% degradation) | A (Category A: A≥75% degradation) | [2H]C([2H])([2H])N1CCC[C@@H]1c1cc2cnc(NC(=O)c3ccc4c(C)nn(CCCCCCCC#Cc5cccc6c5CN(C5CCC(=O)NC5=O)C6=O)c4c3)cc2[nH]1 (stereo partly drawn) [Example 44, 1-(9-(2-(2,6-dioxopiperidin-3-yl)-1-oxoisoindolin-4-yl)non-8-yn-1-yl)-3-methyl-N-(2-((R)-1-(methyl-d3)pyrrolidin-2-yl)-1H-pyrrolo[3,2-c]pyridin-6-yl)-1H-indazole-6-carboxamide] |
| < 100 nM | B (Category B: 50%≤B<75% degradation) | A (Category A: A≥75% degradation) | A (Category A: A≥75% degradation) | Cc1nn(CCCCCC2CCN(c3cccc4c3C(=O)N(C3CCC(=O)NC3=O)C4=O)CC2)c2cc(C(=O)Nc3cc4[nH]c([C@H]5CCCN5C)cc4cn3)ccc12 (stereo partly drawn) [Example 29, 1-(5-(1-(2-(2,6-dioxopiperidin-3-yl)-1,3-dioxoisoindolin-4-yl)piperidin-4-yl)pentyl)-3-methyl-N-(2-((R)-1-methylpyrrolidin-2-yl)-1H-pyrrolo[3,2-c]pyridin-6-yl)-1H-indazole-6-carboxamide] |
| < 100 nM | A (Category A: A≥75% degradation) | A (Category A: A≥75% degradation) | A (Category A: A≥75% degradation) | Cc1nn(CCCCCCCCNc2cccc3c2C(=O)N(C2CCC(=O)NC2=O)C3=O)c2cc(C(=O)Nc3cc4[nH]c([C@H]5CCCN5C)c(Cl)c4cn3)ccc12 (stereo partly drawn) [Example 18, N-(3-chloro-2-((R)-1-methylpyrrolidin-2-yl)-1H-pyrrolo[3,2-c]pyridin-6-yl)-1-(8-((2-(2,6-dioxopiperidin-3-yl)-1,3-dioxoisoindolin-4-yl)amino)octyl)-3-methyl-1H-indazole-6-carboxamide] |
| < 100 nM | D (Category D: D<25% degradation) | A (Category A: A≥75% degradation) | A (Category A: A≥75% degradation) | Cc1nn(CCCCCCCCNc2ccc3c(c2)C(=O)N(C2CCC(=O)NC2=O)C3=O)c2cc(C(=O)Nc3cc4[nH]c([C@@H]5CCCN5C)cc4cn3)ccc12 (stereo partly drawn) [Example 15, 1-(8-{[2-(2,6-dioxopiperidin-3-yl)-1,3-dioxoisoindol-5-yl]amino}octyl)-3-methyl-N-{2-[(2S)-1-methylpyrrolidin-2-yl]-1H-pyrrolo[3,2-c]pyridin-6-yl}indazole-6-carboxamide] |
| < 100 nM | B (Category B: 50%≤B<75% degradation) | B (Category B: 50%≤B<75% degradation) | B (Category B: 50%≤B<75% degradation) | Cc1nn(CCCCCC#Cc2cccc3c2n(C)c(=O)n3C2CCC(=O)NC2=O)c2cc(C(=O)Nc3cc4[nH]c([C@H]5CCCN5C)cc4cn3)ccc12 (stereo partly drawn) [Example 11, 1-{7-[1-(2,6-dioxopiperidin-3-yl)-3-methyl-2-oxo-1,3-benzodiazol-4-yl]hept-6-yn-1-yl}-3-methyl-N-{2-[(2R)-1-methylpyrrolidin-2-yl]-1H-pyrrolo[3,2-c]pyridin-6-yl}indazole-6-carboxamide] |
| < 100 nM | B (Category B: 50%≤B<75% degradation) | A (Category A: A≥75% degradation) | A (Category A: A≥75% degradation) | Cc1nn(CCCCCCCCNc2cccc3c2C(=O)N(C2CCC(=O)NC2=O)C3=O)c2cc(C(=O)Nc3cc4[nH]c([C@H]5CCCN5C)cc4cn3)ccc12 (stereo partly drawn) [Example 3, 1-(8-{[2-(2,6-dioxopiperidin-3-yl)-1,3-dioxoisoindol-4-yl]amino}octyl)-3-methyl-N-{2-[(2R)-1-methylpyrrolidin-2-yl]-1H-pyrrolo[3,2-c]pyridin-6-yl}indazole-6-carboxamide] |
| < 100 nM | B (Category B: 50%≤B<75% degradation) | A (Category A: A≥75% degradation) | B (Category B: 50%≤B<75% degradation) | CN1CCC[C@@H]1c1cc2cnc(NC(=O)c3ccc4c(cnn4CCCCCCCC#Cc4cccc5c4CN(C4CCC(=O)NC4=O)C5=O)c3)cc2[nH]1 (stereo partly drawn) [Example 38, 1-(9-(2-(2,6-dioxopiperidin-3-yl)-1-oxoisoindolin-4-yl)non-8-yn-1-yl)-N-(2-((R)-1-methylpyrrolidin-2-yl)-1H-pyrrolo[3,2-c]pyridin-6-yl)-1H-indazole-5-carboxamide] |
| < 100 nM | B (Category B: 50%≤B<75% degradation) | A (Category A: A≥75% degradation) | B (Category B: 50%≤B<75% degradation) | Cc1nn(CCCC#Cc2cccc3c2CN(C2CCC(=O)NC2=O)C3=O)c2cc(C(=O)Nc3cc4[nH]c([C@H]5CCCN5C)cc4cn3)ccc12 (stereo partly drawn) [Example 32, 1-(5-(2-(2,6-dioxopiperidin-3-yl)-1-oxoisoindolin-4-yl)pent-4-yn-1-yl)-3-methyl-N-(2-((R)-1-methylpyrrolidin-2-yl)-1H-pyrrolo[3,2-c]pyridin-6-yl)-1H-indazole-6-carboxamide] |
| < 100 nM | B (Category B: 50%≤B<75% degradation) | B (Category B: 50%≤B<75% degradation) | A (Category A: A≥75% degradation) | Cc1nn(CCCCCC#Cc2cccc3c2C(=O)N(C2CCC(=O)NC2=O)C3=O)c2cc(C(=O)Nc3cc4[nH]c([C@H]5CCCN5C)cc4cn3)ccc12 (stereo partly drawn) [Example 33, 1-(7-(2-(2,6-dioxopiperidin-3-yl)-1,3-dioxoisoindolin-4-yl)hept-6-yn-1-yl)-3-methyl-N-(2-((R)-1-methylpyrrolidin-2-yl)-1H-pyrrolo[3,2-c]pyridin-6-yl)-1H-indazole-6-carboxamide] |
